A short description of this data set: Solubility of AXT in water. Format: physicochemical.

Turning to `CNC(=O)c1ccccc1Sc1ccc2c(/C=C/c3ccccn3)n[nH]c2c1` [AXT, Axitinib], the Solubility in water result is “poorly soluble in water”.

The values are drawn from patent US12016958B2, “Method for delivering an agent to posterior segment of an eye and uses thereof” (NANO TARGETING & THERAPY BIOPHARMA INC., priority 2021, dated 2024).
